Consider three molecules from patent publication US20130150384A1, “METHOD FOR TREATMENT OF BRAIN CANCERS” (KOREA INSTITUTE OF SCIENCE AND TECHNOLOGY, priority 2008, published 2013).

Molecules are shown by their SMILES. “Also recorded” adds a separate entry of the source.

The test system of one assay is GBM cells. The experiment in a line: Ca^2+ imaging of Fura2-AM loaded GBM cells. The format is cell-based, human. The text has this: Error bars represent SEM.
It is hypothesized that these molecules existing in the Ca^2+ release pathway serve as a potential molecular target in controlling migration and invasion of GBM.

Another assay concerns HEK293T cell line. The experiment in a line: Block against TFLLR-induced intracellular Ca^2+ release in HEK293T. Type of assay: cell-based. The conditions noted are these: 10 mM caffeine, 30 μM TFLLR.
The subject of another assay is human U87MG. The experiment in a line: Survival in orthotropic implantation model. The conditions noted are these: 1 mg/ml caffeine containing drinking water, intracranial U87MG.
The subject of another assay is glioma. The experiment in a line: Soft agar assay (colony formation). Type of assay: cell-based, human. The conditions noted are these: 0.5, 1, 2, 5, or 10 mM caffeine, 14 to 17 days. Here is the method:
Cells (1×10^4) were seeded into 6-well plates in a soft agar (0.3%, Difco) overlaying a 0.6% base agar. […] Cells were incubated at 37 for 14 to 17 days to allow colonies to develop. Afterward colonies were stained with 0.05% cresyl violet and photographed. […] Each assay was done in triplicate (n=3)

Assay [1] concerns human cell line (SH-SY5Y, ATCC). In words: Block against bradykinin-induced intracellular Ca^2+ release in human glioblastoma cell line. Type of assay: cell-based. The settings on record: 10 mM caffeine, 10 μM bradykinin.
In another assay the test system is U87MG cells. The experiment in a line: Xenograft tumor growth assay. Type of assay: in vivo, athymic mice (Balb/c nu/nu). The conditions noted are these: caffeine 1 mg/ml in drinking water from day 7, subcutaneous U87MG, 4 weeks. Here is the method:
Five-week-old athymic mice (Balb/c nu/nu) were obtained from Central Lab. Animal Inc. (Japan). For the xenograft tumor growth assay, U87MG cells (3×10^5 cells/150 ul PBS) were injected subcutaneously into the right flanks of the mice (n=5 to 10 mice per group), and the experiment was conducted in triplicate. […] The control animals were given distilled water. Tumor mass was estimated twice per week for 4 weeks, and tumor volumes were calculated by the formula: […]

`COc1ccc2c(c1)CC[C@@H]1[C@@H]2CC[C@]2(C)[C@@H](NCCCCCCN3C(=O)C=CC3=O)CC[C@@H]12` [U73122]: the “release of Ca^2+ from intracellular stores in response to activation of GPCRs and RTKs” value with GBM cells is “completely inhibited”.

With `Cn1c(=O)c2c(ncn2C)n(C)c1=O` [caffeine], the “intracellular Ca^2+ release” value (with HEK293T cell line; in assay [1]) was “blocked” each time. For the same molecule, the survival rate result with human U87MG is given as “significantly increase the survival rate”. Besides, the “proliferation / anchorage-independent growth (colony numbers)” value with glioma is on record as “reduced the anchorage-independent growth of glioma in vitro, in a dose dependent manner; also recorded: significantly inhibited”. Besides, the “increase of tumor mass” value in the assay on U87MG cells is recorded as “significantly inhibited”.

`C/C=C(/C)C(=O)O[C@H]1C(C)=C2[C@H]([C@@H]1OC(=O)CCCCCCC)[C@@](C)(OC(C)=O)C[C@H](OC(=O)CCC)[C@@]1(O)[C@H]2OC(=O)[C@@]1(C)O` [thapsigargin]: the “subsequent increase in [Ca^2+]i by bradykinin after store depletion” value in the assay on GBM cells is given as “completely inhibited”.
